The results in this text go back to patent CN108129355A, “一种盐酸益母草碱α晶型及其制备方法和应用” (Jingde Xinxing Biological Technology Co Ltd, priority 2018, dated 2018).

Holding throughout (type): physicochemical
One data set is described as follows: Solubility test (溶解度试验). As to conditions: stated in words; values of table 2 missing in this copy.
Data set [1] is described as follows: Strong light (4500lx±500lx) stability.
Data set [2] can be described thus: High temperature (60℃) stability.
A short description of data set [3]: High humidity (RH92.5%) stability.

Turning to `COc1cc(C(=O)OCCCCNC(=N)N)cc(OC)c1O` [盐酸益母草碱α晶型, 盐酸益母草碱], the solubility result in “Solubility test (溶解度试验)” is reported as “较好的溶解性”. For the same compound, the “crystal form stability (X-ray powder diffraction result)” value in data set [1], in data set [2] and in data set [3] was “X-射线粉末衍射结果均未发生变化,仍保持原本晶型” throughout.
